Laboratory results published in PMC3483369 (Molecular cell, 2012).

How the values were obtained:
Type in all cases: biochemical
GuaB (IMP dehydrogenase) = GuaB (IMP dehydrogenase) (Bacillus subtilis, UniProt P21879); experiment: kinetic assay with purified GuaB
HprT = HprT (Bacillus subtilis, UniProt P37472); experiment: kinetic assay with purified HprT
Gmk (guanylate kinase) = Gmk (guanylate kinase) (Bacillus subtilis, UniProt O34328); experiment: PK/LDH coupled enzymatic assay with purified Gmk
Chain of Gmk (guanylate kinase) (O34328 whole entry): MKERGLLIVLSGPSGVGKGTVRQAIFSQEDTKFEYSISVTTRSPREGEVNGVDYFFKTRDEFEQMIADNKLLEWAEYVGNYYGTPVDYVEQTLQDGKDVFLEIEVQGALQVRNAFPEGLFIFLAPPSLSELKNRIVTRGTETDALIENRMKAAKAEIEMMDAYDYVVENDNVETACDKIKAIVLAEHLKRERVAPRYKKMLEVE

Chain of GuaB (IMP dehydrogenase) (P21879 whole entry): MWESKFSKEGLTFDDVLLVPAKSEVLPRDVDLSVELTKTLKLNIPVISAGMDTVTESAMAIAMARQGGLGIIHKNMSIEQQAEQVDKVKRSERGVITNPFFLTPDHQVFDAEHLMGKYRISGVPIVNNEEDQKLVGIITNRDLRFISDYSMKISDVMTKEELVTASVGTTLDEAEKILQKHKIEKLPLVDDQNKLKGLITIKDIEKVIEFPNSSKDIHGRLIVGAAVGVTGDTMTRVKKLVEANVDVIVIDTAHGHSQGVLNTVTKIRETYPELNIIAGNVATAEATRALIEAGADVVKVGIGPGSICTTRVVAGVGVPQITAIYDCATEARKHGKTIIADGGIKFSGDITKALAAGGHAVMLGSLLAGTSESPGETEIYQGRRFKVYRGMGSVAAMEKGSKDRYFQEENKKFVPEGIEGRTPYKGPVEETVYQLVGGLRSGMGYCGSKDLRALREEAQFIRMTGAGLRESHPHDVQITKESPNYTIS
Chain of HprT (P37472 whole entry): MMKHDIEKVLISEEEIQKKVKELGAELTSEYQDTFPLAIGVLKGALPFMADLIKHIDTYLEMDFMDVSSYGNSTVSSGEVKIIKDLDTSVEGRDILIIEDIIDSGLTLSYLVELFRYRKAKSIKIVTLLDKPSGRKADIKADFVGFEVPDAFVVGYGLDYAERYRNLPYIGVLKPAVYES

| SMILES | IC50 (GuaB (IMP dehydrogenase)) [µM] | IC50 (HprT) [µM] | IC50 (Gmk (guanylate kinase)) [µM] |
| --- | --- | --- | --- |
| Nc1nc2c(ncn2[C@@H]2O[C@H](COP(=O)(O)OP(=O)(O)OP(=O)(O)O)[C@@H](OP(=O)(O)OP(=O)(O)O)[C@H]2O)c(=O)[nH]1 [pppGpp] | ~300 | ~11 | ~20 |
| Nc1nc2c(ncn2[C@@H]2O[C@H](COP(=O)(O)OP(=O)(O)O)[C@@H](OP(=O)(O)OP(=O)(O)O)[C@H]2O)c(=O)[nH]1 [ppGpp] | ~500 | ~11 | ~20 |
